Test results as given in PMC11484861 (Nature Communications, 2024).
Ends that are not written are not given here.

Tests used:
[1] = test system: SARS-CoV-2 M protein level; type: cell-based, human
[2] = test system: TOMM22 level; type: cell-based, human; settings: for effects of SQSTM1 on TOMM22 degradation: PDPK1-KO HEK293T, even in the presence of PDPK1, Mdivi-1 2.5 μM, CQ 50 μM, wortmannin 5 μM, 4 h (Fig 2G)
[3] = test system: IFNB1 mRNA expression; type: cell-based, human
[4] = test system: mitophagy; type: cell-based, human
[5] = test system: PEDV; type: cell-based
[6] = test system: binding of SQSTM1 to TOMM22; type: cell-based, human
[7] = test system: binding of SQSTM1 to M; type: cell-based, human
[8] = test system: IFNB1 mRNA expression; set-up: species or system mice; settings: mouse, in vivo
[9] = test system: MAVS level; type: cell-based, human
[10] = test system: IFNB1 mRNA expression; type: cell-based, human; remark: listed apart in the source
[11] = test system: phosphorylation of SQSTM1 at T138; type: cell-based, human
[12] = test system: PEDV; type: cell-based; remark: listed apart in the source
[13] = biological target: GFP-SQSTM1 (Homo sapiens, UniProt Q13501); experiment: biochemical; type: binding
[14] = test system: IFNB1 mRNA expression; type: cell-based, human; settings: HEK293T, presence vs absence of poly (I:C); P = 0.001 (Fig 6A)
[15] = biological target: GFP-PDPK1 (human (cloned from HEK293T cells)) (UniProt O15530); experiment: MST
GFP-PDPK1 (human (cloned from HEK293T cells)), sequence (O15530 whole entry): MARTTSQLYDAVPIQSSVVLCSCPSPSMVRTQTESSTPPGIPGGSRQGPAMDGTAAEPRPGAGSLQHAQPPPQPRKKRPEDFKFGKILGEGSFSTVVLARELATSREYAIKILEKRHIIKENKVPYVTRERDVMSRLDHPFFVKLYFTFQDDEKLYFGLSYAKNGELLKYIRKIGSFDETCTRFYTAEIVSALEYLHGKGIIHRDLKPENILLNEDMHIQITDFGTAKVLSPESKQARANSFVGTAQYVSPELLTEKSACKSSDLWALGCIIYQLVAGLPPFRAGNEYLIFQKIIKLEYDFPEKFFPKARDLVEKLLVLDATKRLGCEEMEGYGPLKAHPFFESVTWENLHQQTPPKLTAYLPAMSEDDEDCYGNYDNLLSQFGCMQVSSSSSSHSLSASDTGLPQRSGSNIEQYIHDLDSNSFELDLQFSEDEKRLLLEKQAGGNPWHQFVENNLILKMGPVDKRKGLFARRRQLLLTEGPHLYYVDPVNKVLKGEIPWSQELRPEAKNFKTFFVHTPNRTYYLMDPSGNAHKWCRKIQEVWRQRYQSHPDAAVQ

For `CCN(CC)CCCC(C)Nc1ccnc2cc(Cl)ccc12` (stereo not drawn) [CQ, chloroquine], the “effects of SQSTM1 on M degradation” value [1] was “completely abolished” and the “effects of SQSTM1 on TOMM22 degradation” value [2] was “completely abolished”.

`NCC(=O)Nc1ccc(-n2nc(C(F)(F)F)cc2-c2ccc3c(ccc4ccccc43)c2)cc1` [OSU-03012] was tested, and the M levels [1] was “further decreased”, the “IFNB1 expression during PEDV infection in cells” value [3] was “restored” and the “levels of TOMM22 decreased by PM or M expression” value ([2]; Fig 5B) was “restored”. The TOMM22 levels ([2]; SQSTM1-KO cells with SQSTM1 expression, compared with control group (Fig S2J)) was “restored”, the “decrease in GFP fluorescence of RFP-GFP-Mito caused by SQSTM1 expression” value [4] was “reversed the decrease” and the “effect of M on the shift in the green signal to a red signal (RFP-GFP-Mito, mitophagy)” value [4] was “reversed”. For the same molecule, the “PEDV M protein expression during PEDV infection” value [5] was “reduced”, the “binding of SQSTM1 to TOMM22” value [6] was “decreased” and the “binding of SQSTM1 to M” value [7] was “increased”. The “IFNB1 expression in lungs of VSV-M-infected mice” value [8] was “restored”, the “levels of MAVS decreased by PM or M expression” value [9] was “restored” and the “IFNB1 expression during VSV-M infection in cells” value [10] was “restored”. The “M/PM-induced phosphorylation of SQSTM1 at T138” value [11] was “inhibited”, the “phosphorylation of SQSTM1 at T138” value [11] was “blocked” and the “PEDV replication / viral titer (TCID50) in cells” value [12] was “attenuated”.

With `COC[C@H]1OC(=O)c2coc3c2[C@@]1(C)C1=C(C3=O)[C@@H]2CCC(=O)[C@@]2(C)C[C@H]1OC(C)=O` [wortmannin] the “effects of SQSTM1 on M degradation” value [1] was “completely abolished” and the “effects of SQSTM1 on TOMM22 degradation” value [2] was “completely abolished”.

With Mdivi-1 the “effects of SQSTM1 on M degradation” value [1] was “not M degradation” and the “effects of SQSTM1 on TOMM22 degradation” value [2] was “only blocked”.

SMWSFNPETN [M-CD] showed a Kd [13] of 115 ± 28 nM.

For poly (I:C), the “IFNB1 mRNA expression” value [14] was “substantially increased”.

With “unlabeled M-β3-5 (MST ligand) (from UniProt P0DTC5 1-222) (domain or fragment)” the Kd [15] was 71 nM.
